In ChEMBL document CHEMBL2074474, “Prodrugs of purine and pyrimidine analogues for the intestinal di/tri-peptide transporter PepT1: affinity for hPepT1 in Caco-2 cells, drug release in aqueous media and in vitro metabolism” (J Control Release, 2003):

Target: T1, Solute carrier family 15 member 1 (Homo sapiens, UniProt P46059)
T1 sequence (P46059 whole entry): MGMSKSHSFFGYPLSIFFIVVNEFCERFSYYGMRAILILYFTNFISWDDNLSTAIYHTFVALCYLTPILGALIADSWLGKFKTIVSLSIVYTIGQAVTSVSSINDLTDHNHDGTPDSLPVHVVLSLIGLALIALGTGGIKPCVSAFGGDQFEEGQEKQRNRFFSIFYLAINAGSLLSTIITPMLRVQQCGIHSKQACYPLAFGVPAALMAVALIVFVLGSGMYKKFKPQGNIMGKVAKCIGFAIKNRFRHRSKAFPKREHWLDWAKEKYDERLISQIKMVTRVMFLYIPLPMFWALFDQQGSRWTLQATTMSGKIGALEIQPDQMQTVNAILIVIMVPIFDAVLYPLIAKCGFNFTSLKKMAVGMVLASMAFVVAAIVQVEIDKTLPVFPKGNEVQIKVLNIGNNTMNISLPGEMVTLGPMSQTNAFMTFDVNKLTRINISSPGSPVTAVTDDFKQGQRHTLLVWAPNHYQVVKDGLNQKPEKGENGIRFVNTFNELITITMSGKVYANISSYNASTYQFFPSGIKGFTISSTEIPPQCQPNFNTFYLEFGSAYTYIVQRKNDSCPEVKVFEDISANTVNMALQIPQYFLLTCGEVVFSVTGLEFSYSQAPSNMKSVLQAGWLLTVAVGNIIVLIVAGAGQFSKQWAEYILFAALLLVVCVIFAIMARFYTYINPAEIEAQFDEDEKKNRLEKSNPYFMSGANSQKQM
Assay: TP_TRANSPORTER: inhibition of Gly-Sar uptake in Caco-2 cells
Type: functional, cell-based

SMILES | Ki [µM]
Cc1cn(COC(=O)C(O)C[C@H](N)C(=O)N(C)CC(=O)O)c(=O)[nH]c1=O (some centres not stated) | 210
CN(CC(=O)O)C(=O)[C@@H](N)CCC(=O)OCCOCn1cnc2c(=O)[nH]c(N)nc21 | 280
